In ChEMBL document CHEMBL6109035, “Anticonvulsant effects of new coumarin-2,3-dimethylbutadiene Diels-Alder cycloadducts in the pentylenetetrazole-induced clonic seizures in mice” (Bioorg Med Chem Lett, 2025):

Experiments:
[1] = test system: Mus musculus; assay: Antiseizure activity in PTZ-induced male CD-1 mouse clonic seizure model assessed as increase in latency time by measuring fold change at 15 mg/kg, ip pretreated with compound followed by PTZ-induction; type: functional
[2] = test system: Mus musculus; assay: Antiseizure activity in PTZ-induced male CD-1 mouse clonic seizure model assessed as improvement in locomotor activity by measuring fold change at 15 mg/kg, ip pretreated with compound followed by PTZ-induction by open field test; type: functional
[3] = test system: Mus musculus; assay: Antiseizure activity in PTZ-induced male CD-1 mouse clonic seizure model assessed as increase in latency time at 15 mg/kg, ip pretreated with compound followed by PTZ-induction; type: functional
[4] = test system: Mus musculus; assay: Antiseizure activity in PTZ-induced male CD-1 mouse clonic seizure model assessed as improvement in locomotor activity by measuring total events at 15 mg/kg, ip pretreated with compound followed by PTZ-induction by open field test; type: functional
[5] = test system: Mus musculus; assay: Antiseizure activity in PTZ-induced male CD-1 mouse clonic seizure model assessed as increase in latency time by measuring fold change at 12 mg/kg, ip pretreated with compound followed by PTZ-induction; type: functional
[6] = test system: Mus musculus; assay: Antiseizure activity in PTZ-induced male CD-1 mouse clonic seizure model assessed as increase in latency time at 12 mg/kg, ip pretreated with compound followed by PTZ-induction; type: functional
[7] = test system: Mus musculus; assay: Antiseizure activity in PTZ-induced male CD-1 mouse clonic seizure model assessed as improvement in locomotor activity by measuring fold change at 12 mg/kg, ip pretreated with compound followed by PTZ-induction; type: functional
[8] = test system: Mus musculus; assay: Antiseizure activity in PTZ-induced male CD-1 mouse clonic seizure model assessed as improvement in locomotor activity by measuring total events at 12 mg/kg, ip pretreated with compound followed by PTZ-induction by open field test; type: functional
[9] = Toxicity in male CD-1 mouse assessed as sedation at 12 to 13 mg/kg, ip; type: organism-based; conditions: in vivo, dose 12-13 mg/kg
[10] = Toxicity in male CD-1 mouse assessed as piloerection at 12 to 13 mg/kg, ip; type: organism-based; conditions: in vivo, dose 12-13 mg/kg
[11] = Toxicity in male CD-1 mouse assessed as stimulation of appetite at 12 to 13 mg/kg, ip; type: organism-based; conditions: in vivo, dose 12-13 mg/kg
[12] = test system: Mus musculus; assay: Antiseizure activity in PTZ-induced male CD-1 mouse clonic seizure model assessed as increase in latency time by measuring fold change at 13 mg/kg, ip pretreated with compound followed by PTZ-induction; type: functional
[13] = test system: Mus musculus; assay: Antiseizure activity in PTZ-induced male CD-1 mouse clonic seizure model assessed as increase in latency time at 13 mg/kg, ip pretreated with compound followed by PTZ-induction; type: functional
[14] = test system: Mus musculus; assay: Antiseizure activity in PTZ-induced male CD-1 mouse clonic seizure model assessed as improvement in locomotor activity by measuring fold change at 13 mg/kg, ip pretreated with compound followed by PTZ-induction; type: functional
[15] = test system: Mus musculus; assay: Antiseizure activity in PTZ-induced male CD-1 mouse clonic seizure model assessed as improvement in locomotor activity by measuring total events at 13 mg/kg, ip pretreated with compound followed by PTZ-induction by open field test; type: functional

Row | SMILES | fold change (FC) [1] | fold change (FC) [2] | Time [3] [s] | Activity [4] | fold change (FC) [5] | Time [6] [s] | fold change (FC) [7] | Activity [8] | Activity [9] | Activity [10] | Activity [11] | fold change (FC) [12] | Time [13] [s] | fold change (FC) [14] | Activity [15]
1 | Cc1c(C(=O)c2cccc3ccccc23)c2cccc3c2n1C(CN1CCOCC1)CO3 (stereo not given) | ~4 | 3 | 279 | 3079 | – | – | – | – | – | – | – | – | – | – | –
2 | CC1=C(C)C[C@]2(C(=O)c3ccccc3)C(=O)Oc3ccccc3[C@@H]2C1 | – | – | – | – | ~4 | 264 | 2.4 | 2747 | Toxic | Toxic | Toxic | – | – | – | –
3 | CC1=C(C)C[C@]2(C(=O)c3ccc(C)cc3)C(=O)Oc3ccccc3[C@@H]2C1 | – | – | – | – | ~4 | 269 | 2.4 | 2876 | Toxic | Toxic | Toxic | – | – | – | –
4 | CC1=C(C)C[C@]2(C(=O)c3ccc(Cl)cc3)C(=O)Oc3ccccc3[C@@H]2C1 | – | – | – | – | – | – | – | – | Toxic | Toxic | Toxic | ~4 | 266 | 2.4 | 2790
